From ChEMBL document CHEMBL3608288, “Novel Chalcone-Thiazole Hybrids as Potent Inhibitors of Drug Resistant Staphylococcus aureus” (ACS Med Chem Lett, 2015)
Converted amounts (≈) assume the structure as drawn.

Legend:
[1] = Hemolytic activity in human RBC at 100 ug/ml after 1 hr; conditions: erythrocyte
[2] = tested on: Trichophyton mentagrophytes; assay: Antifungal activity against Trichophyton mentagrophytes after 16 hrs by microtiter broth dilution method; assay type: functional
[3] = tested on: Escherichia coli; assay: Antibacterial activity against Escherichia coli ATCC 9637 after 16 hrs by microtiter broth dilution method; assay type: functional; conditions: W
[4] = tested on: Candida albicans; assay: Antifungal activity against Candida albicans after 16 hrs by microtiter broth dilution method; assay type: functional
[5] = tested on: Staphylococcus aureus; assay: Antibacterial activity against methicillin/gentamicin-resistant Staphylococcus aureus ATCC 33592 after 16 hrs by microtiter broth dilution method; assay type: functional
[6] = tested on: Staphylococcus aureus; assay: Antibacterial activity against Staphylococcus aureus ATCC 25923 after 16 hrs by microtiter broth dilution method; assay type: functional
[7] = tested on: Pseudomonas aeruginosa; assay: Antibacterial activity against Pseudomonas aeruginosa ATCC BAA-427 after 16 hrs by microtiter broth dilution method; assay type: functional
[8] = tested on: Staphylococcus aureus; assay: Antibacterial activity against methicillin-resistant Staphylococcus aureus ATCC 700699 after 16 hrs by microtiter broth dilution method; assay type: functional
[9] = tested on: Aspergillus fumigatus; assay: Antifungal activity against Aspergillus fumigatus after 16 hrs by microtiter broth dilution method; assay type: functional
[10] = tested on: Candida parapsilosis; assay: Antifungal activity against Candida parapsilosis ATCC 22019 after 16 hrs by microtiter broth dilution method; assay type: functional
[11] = tested on: Sporothrix schenckii; assay: Antifungal activity against Sporothrix schenckii after 16 hrs by microtiter broth dilution method; assay type: functional
[12] = tested on: Klebsiella pneumoniae; assay: Antibacterial activity against Klebsiella pneumoniae ATCC 27736 after 16 hrs by microtiter broth dilution method; assay type: functional
[13] = tested on: Staphylococcus aureus; assay: Antibacterial activity against […] Staphylococcus aureus ATCC 29213 after 16 hrs by microtiter broth dilution method; assay type: functional
[14] = tested on: Cryptococcus neoformans; assay: Antifungal activity against Cryptococcus neoformans after 16 hrs by microtiter broth dilution method; assay type: functional
[15] = Lodderomyces parapsilosis, ATCC 22019, 16 h

| Compound | Activity [1] | MIC [2] | MIC [3] | MIC [4] | MIC ([5]; ATCC 33592, 16 h) | MIC ([6]; ATCC 25923, 16 h) | MIC ([7]; ATCC BAA-427, 16 h) | MIC ([8]; ATCC 700699, 16 h) | MIC [9] | MIC [10, 15] | MIC [11] | MIC ([12]; ATCC 27736, 16 h) | MIC ([13]; ATCC 29213, 16 h) | MIC [14] | further results |
| --- | --- | --- | --- | --- | --- | --- | --- | --- | --- | --- | --- | --- | --- | --- | --- |
| CCCc1cc(/C=C/C(=O)c2ccco2)cc(/C=N/c2nc(C(=O)OCC)cs2)c1O | Non-toxic | > 102 µM | > 102 µM | > 102 µM | 51.2 µM (≈ 22.5 µg/mL) | 51.2 µM (≈ 22.5 µg/mL) | > 102 µM | 51.2 µM (≈ 22.5 µg/mL) | > 102 µM | > 102 µM | > 102 µM | > 102 µM | 51.2 µM (≈ 22.5 µg/mL) | > 102 µM |  |
| CN[C@H](CC(C)C)C(=O)N[C@H]1C(=O)N[C@@H](CC(N)=O)C(=O)N[C@H]2C(=O)N[C@H]3C(=O)N[C@H](C(=O)N[C@H](C(=O)O)c4cc(O)cc(O)c4-c4cc3ccc4O)[C@H](O)c3ccc(c(Cl)c3)Oc3cc2cc(c3O[C@@H]2O[C@H](CO)[C@@H](O)[C@H](O)[C@H]2O[C@H]2C[C@](C)(N)[C@H](O)[C@H](C)O2)Oc2ccc(cc2Cl)[C@H]1O [VANCOMYCIN] |  | 157 µM (≈ 227 µg/mL) | > 157 µM | > 157 µM | 2.4 µM (≈ 3.48 µg/mL) | 2.4 µM (≈ 3.48 µg/mL) | > 157 µM | 9.8 µM (≈ 14.2 µg/mL) | 157 µM (≈ 227 µg/mL) | 157 µM (≈ 227 µg/mL) | 157 µM (≈ 227 µg/mL) | > 157 µM | 1.2 µM (≈ 1.74 µg/mL) | 157 µM (≈ 227 µg/mL) |  |
| COc1ccc(-c2csc(/N=C/c3cc(/C=C/C(=O)c4cccs4)cc(C(C)(C)C)c3O)n2)cc1OC | Non-toxic | > 93.9 µM | > 93.9 µM | > 93.9 µM | 11.7 µM (≈ 6.23 µg/mL) | 23.5 µM (≈ 12.5 µg/mL) | > 93.9 µM | 11.7 µM (≈ 6.23 µg/mL) | > 93.9 µM | > 93.9 µM | > 93.9 µM | > 93.9 µM | 11.7 µM (≈ 6.23 µg/mL) | > 93.9 µM |  |
| GENTAMICIN |  | 105 µM | 6.5 µM | > 105 µM |  |  |  |  | 105 µM |  | 105 µM |  |  | 105 µM | MIC [5]: 105 µM; MIC [6]: 1.6 µM; MIC [7]: 1.6 µM; MIC [8]: 105 µM; MIC [10]: 105 µM; MIC [12]: 3.3 µM; MIC [13]: 3.3 µM |
| COc1ccc(-c2csc(/N=C/c3cc(/C=C/C(=O)c4ccc(C)cc4)cc(C(C)(C)C)c3O)n2)cc1 | Non-toxic | > 97.9 µM | > 97.9 µM | > 97.9 µM | 12.2 µM (≈ 6.23 µg/mL) | 12.2 µM (≈ 6.23 µg/mL) | > 97.9 µM | 12.2 µM (≈ 6.23 µg/mL) | > 97.9 µM | > 97.9 µM | > 97.9 µM | > 97.9 µM | 12.2 µM (≈ 6.23 µg/mL) | > 97.9 µM |  |
| CCn1cc(C(=O)O)c(=O)c2cc(F)c(N3CCNCC3)cc21 [NORFLOXACIN] |  | 33.6 µM (≈ 10.7 µg/mL) |  | > 33.6 µM | 0.5 µM (≈ 0.16 µg/mL) | 0.5 µM (≈ 0.16 µg/mL) | 1 µM (≈ 0.319 µg/mL) | 33.6 µM (≈ 10.7 µg/mL) | 33.6 µM (≈ 10.7 µg/mL) | 33.6 µM (≈ 10.7 µg/mL) | 33.6 µM (≈ 10.7 µg/mL) | 0.1 µM (≈ 0.0319 µg/mL) | 1 µM (≈ 0.319 µg/mL) | 33.6 µM (≈ 10.7 µg/mL) |  |
| CCOC(=O)c1csc(/N=C/c2cc(/C=C/C(=O)c3cccs3)cc(C(C)C)c2O)n1 | Non-toxic | > 110 µM | > 110 µM | > 110 µM | 13.7 µM (≈ 6.23 µg/mL) | 27.5 µM (≈ 12.5 µg/mL) | > 110 µM | 27.5 µM (≈ 12.5 µg/mL) | > 110 µM | > 110 µM | > 110 µM | > 110 µM | 27.5 µM (≈ 12.5 µg/mL) | > 110 µM |  |
| CCOC(=O)c1csc(/N=C/c2cc(/C=C/C(=O)c3cccs3)cc(C(C)(C)C)c2O)n1 | Non-toxic | > 107 µM | > 107 µM | > 107 µM | 3.3 µM (≈ 1.55 µg/mL) | 13.3 µM (≈ 6.23 µg/mL) | > 107 µM | 13.3 µM (≈ 6.23 µg/mL) | > 107 µM | > 107 µM | > 107 µM | > 107 µM | 6.7 µM (≈ 3.14 µg/mL) | > 107 µM |  |
| CCOC(=O)c1csc(/N=C/c2cc(/C=C/C(=O)c3ccc(OC)cc3)cc(C(C)(C)C)c2O)n1 | Non-toxic | > 102 µM | > 102 µM | > 102 µM | 3.2 µM (≈ 1.58 µg/mL) | 12.7 µM (≈ 6.26 µg/mL) | > 102 µM | 12.7 µM (≈ 6.26 µg/mL) | > 102 µM | > 102 µM | > 102 µM | > 102 µM | 12.7 µM (≈ 6.26 µg/mL) | > 102 µM |  |
